Measurements taken from patent US11633457B2, “Pharmaceutical compositions comprising oncostatin m (OSM) antagonist derivatives and methods of use” (Boise State University, priority 2019, dated 2023).

How the values were obtained:
prostate tumor cell = details: earlier work (U.S. Ser. No. 15/403,965); cited from earlier work
STAT3, JNK, ERK, and AKT = details: earlier work (U.S. Ser. No. 15/403,965); cited from earlier work
[1] = test system: OSM-induced phosphorylation of STAT3 on Tyr-705 (pSTAT3); experiment: ELISA of OSM-induced phosphorylation of STAT3 (pSTAT3) with inhibitor pretreatment; assay type: cell-based, human; details: for reduction in OSM induced phosphorylation of STAT3 (pSTAT3): 10, 50, and 100 μM per the method of Example 1, FIGS. 4A and 4B; for effect on OSM induced pSTAT3 phosphorylation, initial tests: OSM with or without inhibitor pretreatment, FIG. 3; for reduction of the OSM induced increase in pSTAT3 expression: initial testing, FIG. 6
Protocol: Therefore, the phosphyloration of various signaling pathways was assayed using an ELISA both with and without inhibitors and at various concentrations.
All human breast carcinoma cell lines used in this aim were purchased from the American Type Culture Collection (ATCC) or Caliper Life Sciences, and the growth of frozen cell aliquots will be initiated on a periodic basis to remove the possibility of cross-cell contamination. The cell lines were regularly tested for mycoplasma contamination by both DAPI staining and PCR. Four invasive ductal carcinoma cell lines, T47D, MCF7, MDA-MB-231 and MDA-MB-468, were used. These include the less aggressive, estrogen receptor-positive (ER+), progesterone receptor positive (PR+), HER2−, luminal T47D and MCF7-luc cell lines, as well as the triple negative breast cancer (TNBC) basal-like cell line, MDA-MB-231-LN-luc, that is metastatic in orthotopic xenografts and the less metastatic TNBC cell line MDA-MB-468. All cell lines express OSMRb, LIFRb, and gp130, as well as various levels of OSM, by RT-PCR
An enzyme-linked immunosorbent assay (ELISA) was used for analyzing initial OSM-induced phosphorylation of STAT3 on Tyr-705 (pSTAT3). T47D, MCF7, and MDA-MB-231 human breast cancer cells induced pSTAT3 upon stimulation with OSM (25 ng/ml) for 30 minutes. OSM-SMI-8 modified inhibitors were used to pretreat the cells in order to assay their ability to inhibit OSM-OSMR interactions. Pretreatment consisted of administering to the cells either 5, 10, 50, or 100 μM of the modified OSM-SMI-8 based inhibitor for 2 hours prior to administration of OSM.

[2] = test system: OSM induced secretion of VEGF; experiment: ELISA of OSM induced VEGF secretion; assay type: cell-based; details: pretreatment with inhibitor; FIG. 5
Protocol: (§1) OSM-SMI-10B was also assayed for its effect on OSM induced secretions of both VEGF and IL-6 by ELISA (FIG. 5).

[3] = test system: OSM induced secretion of IL-6; experiment: ELISA of OSM induced IL-6 secretion; assay type: cell-based; details: pretreatment with inhibitor; FIG. 5
Protocol: as §1

| Compound | reduction in OSM induced phosphorylation of STAT3 (pSTAT3) [1] | effect on OSM induced pSTAT3 phosphorylation, initial tests [1] | also measured |
| --- | --- | --- | --- |
| O=C(O)/C(=C\C=C\c1ccccc1)c1coc(-c2nc(/C(=C/C=C/c3ccccc3)C(=O)O)co2)n1 [OSM-SMI-8] | – | – | inhibition of OSM induced prostate tumor cell detachment (prostate tumor cell): shown to inhibit; inhibition of OSM induced phosphorylation of STAT3, JNK, ERK, and AKT (STAT3, JNK, ERK, and AKT): shown to inhibit |
| O=C(O)/C=C/c1cc(-c2ccc3c(c2)OCO3)c(-c2ccc3c(c2)OCO3)o1 [OSM-SMI-10B] | significant reduction in pSTAT3 at every treatment level | inhibitory effect | reduction in the OSM induction of VEGF secretion [2]: large reduction; reduction in the OSM induction of IL-6 secretion [3]: large reduction |
| O=C(/C=C/c1cc(-c2ccc3c(c2)OCO3)c(-c2ccc3c(c2)OCO3)o1)c1ccccc1 [OSM-SMI-10C] | significant reduction in pSTAT3 at every treatment level | inhibitory effect | – |
| CCOC(=O)/C=C/c1cc(-c2ccc3c(c2)OCO3)c(-c2ccc3c(c2)OCO3)o1 [OSM-SMI-10D] | – | inhibitory effect | – |
| C(=N\Nc1ccccc1)/c1cc(-c2ccc3c(c2)OCO3)c(-c2ccc3c(c2)OCO3)o1 [OSM-SMI-10E] | significant reduction in pSTAT3 at every treatment level | inhibitory effect | – |
| O=C(NCc1ccccc1)c1cc(-c2ccc3c(c2)OCO3)c(-c2ccc3c(c2)OCO3)o1 [OSM-SMI-10J] | – | inhibitory effect | – |
| O=[N+]([O-])c1c(/C=N/Nc2ccccc2)oc(-c2ccc3c(c2)OCO3)c1-c1ccc2c(c1)OCO2 [OSM-SMI-10] | – | – | inhibition of OSM induced prostate tumor cell detachment (prostate tumor cell): shown to inhibit; inhibition of OSM induced phosphorylation of STAT3, JNK, ERK, and AKT (STAT3, JNK, ERK, and AKT): shown to inhibit |
| O=C(/C=C/c1ccccc1)c1cccc(N2C(=O)c3ccc(Oc4ccc5c(c4)C(=O)N(c4cccc(C(=O)/C=C/c6ccccc6)c4)C5=O)cc3C2=O)c1 [OSM-SMI-23] | – | – | reduction of the OSM induced increase in pSTAT3 expression [1]: more than about half |
| Cc1ccc(-c2cc(C(=O)Nc3cccc(C(=O)O)c3)c3cc(Br)ccc3n2)cc1C [OSM-SMI-26] | – | – | reduction of the OSM induced increase in pSTAT3 expression [1]: more than about half |
